Experimental data published in the kinase profiling compilation of Christmann-Franck et al. (2016).
Several values for one entry are separate records, joined by “and”; a condition that tells them apart may be missing. Identical values can stand only once.

Experiments:
Experiment in all cases: radiometric filter-binding kinase assay, Kinase HotSpot
Conditions in all cases: compound 0.5 µM; ATP 10 µM
AURKA (human) = AURKA (human) (UniProt O14965)
CAMK1D (human) = CAMK1D (human) (UniProt Q8IU85)
CAMK2B (human) = CAMK2B (human) (UniProt Q13554)
CDK2 CCNE1 (human) = CDK2 CCNE1 (human) (UniProt P24941+P24864)
CDK6 CCND1 (human) = CDK6 CCND1 (human) (UniProt Q00534+P24385)
CDK7 CCNH MNAT1 (human) = CDK7 CCNH MNAT1 (human) (UniProt P50613+P51948+P51946)
CDK9 CCNK (human) = CDK9 CCNK (human) (UniProt O75909+P50750)
CLK2 (human) = CLK2 (human) (UniProt P49760)
DAPK1 (human) = DAPK1 (human) (UniProt P53355)
EPHA1 (human) = EPHA1 (human) (UniProt P21709)
EPHB2 (human) = EPHB2 (human) (UniProt P29323)
EPHB4 (human) = EPHB4 (human) (UniProt P54760)
FES (human) = FES (human) (UniProt P07332)
GSK3A (human) = GSK3A (human) (UniProt P49840)
INSRR (human) = INSRR (human) (UniProt P14616)
MAP4K4 (human) = MAP4K4 (human) (UniProt O95819)
MAPK10 (human) = MAPK10 (human) (UniProt P53779)
MAPKAPK5 (human) = MAPKAPK5 (human) (UniProt Q8IW41)
MET (human) = MET (human) (UniProt P08581)
MINK1 (human) = MINK1 (human) (UniProt Q8N4C8)
MKNK2 (human) = MKNK2 (human) (UniProt Q9HBH9)
MLTK (human) = MLTK (human) (UniProt Q9NYL2)
MST4 (human) = MST4 (human) (UniProt Q9P289)
MYLK (human) = MYLK (human) (UniProt Q15746)
MYLK2 (human) = MYLK2 (human) (UniProt Q9H1R3)
NEK11 (human) = NEK11 (human) (UniProt Q8NG66)
NEK9 (human) = NEK9 (human) (UniProt Q8TD19)
PAK6 (human) = PAK6 (human) (UniProt Q9NQU5)
PIM1 (human) = PIM1 (human) (UniProt P11309)
PLK2 (human) = PLK2 (human) (UniProt Q9NYY3)
PRKACA (human) = PRKACA (human) (UniProt P17612)
PRKCD (human) = PRKCD (human) (UniProt Q05655)
PRKD1 (human) = PRKD1 (human) (UniProt Q15139)
PRKG1 (human) = PRKG1 (human) (UniProt Q13976)
ROCK1 (human) = ROCK1 (human) (UniProt Q13464)
RPS6KB2 (human) = RPS6KB2 (human) (UniProt Q9UBS0)
SGK2 (human) = SGK2 (human) (UniProt Q9HBY8)
STK33 (human) = STK33 (human) (UniProt Q9BYT3)
STK39 (human) = STK39 (human) (UniProt Q9UEW8)
SYK (human) = SYK (human) (UniProt P43405)
ULK2 (human) = ULK2 (human) (UniProt Q8IYT8)
WNK2 (human) = WNK2 (human) (UniProt Q9Y3S1)

Chain of DAPK1 (human) (P53355 whole entry, looked up): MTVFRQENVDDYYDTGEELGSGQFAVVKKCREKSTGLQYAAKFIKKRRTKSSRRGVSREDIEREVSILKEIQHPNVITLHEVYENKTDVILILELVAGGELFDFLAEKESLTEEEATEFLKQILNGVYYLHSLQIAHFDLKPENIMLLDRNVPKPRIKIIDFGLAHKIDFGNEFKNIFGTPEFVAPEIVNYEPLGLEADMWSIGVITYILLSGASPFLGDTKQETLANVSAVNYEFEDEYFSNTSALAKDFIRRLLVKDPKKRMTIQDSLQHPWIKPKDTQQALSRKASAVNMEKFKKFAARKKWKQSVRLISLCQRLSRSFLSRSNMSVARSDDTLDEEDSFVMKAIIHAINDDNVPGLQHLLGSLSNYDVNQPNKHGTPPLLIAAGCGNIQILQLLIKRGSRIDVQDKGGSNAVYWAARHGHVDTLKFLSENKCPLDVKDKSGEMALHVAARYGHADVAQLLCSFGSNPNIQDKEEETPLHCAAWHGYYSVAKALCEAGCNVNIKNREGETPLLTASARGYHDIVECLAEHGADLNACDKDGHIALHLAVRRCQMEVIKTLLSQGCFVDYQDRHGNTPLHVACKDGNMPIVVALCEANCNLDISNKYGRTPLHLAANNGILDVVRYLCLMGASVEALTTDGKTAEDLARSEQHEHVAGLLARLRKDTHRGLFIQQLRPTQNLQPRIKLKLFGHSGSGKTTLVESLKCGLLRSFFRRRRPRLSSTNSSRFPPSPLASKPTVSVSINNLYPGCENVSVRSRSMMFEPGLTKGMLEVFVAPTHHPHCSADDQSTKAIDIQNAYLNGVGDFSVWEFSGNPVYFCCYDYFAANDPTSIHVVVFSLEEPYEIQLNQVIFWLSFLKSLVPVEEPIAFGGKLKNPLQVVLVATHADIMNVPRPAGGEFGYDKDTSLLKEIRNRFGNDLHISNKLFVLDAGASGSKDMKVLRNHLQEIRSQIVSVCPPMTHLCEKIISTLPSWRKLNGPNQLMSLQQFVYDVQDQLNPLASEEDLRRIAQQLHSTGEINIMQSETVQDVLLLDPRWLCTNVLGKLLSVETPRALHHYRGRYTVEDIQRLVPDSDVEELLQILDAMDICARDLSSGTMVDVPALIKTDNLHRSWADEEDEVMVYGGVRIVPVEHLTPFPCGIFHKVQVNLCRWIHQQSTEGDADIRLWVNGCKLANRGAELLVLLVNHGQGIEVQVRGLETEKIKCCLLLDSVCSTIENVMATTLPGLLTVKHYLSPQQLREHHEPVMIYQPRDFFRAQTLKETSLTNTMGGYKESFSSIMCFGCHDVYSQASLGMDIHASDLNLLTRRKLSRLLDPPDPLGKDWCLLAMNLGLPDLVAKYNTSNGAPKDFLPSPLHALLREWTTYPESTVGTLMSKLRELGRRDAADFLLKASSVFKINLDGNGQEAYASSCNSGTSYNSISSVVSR
Chain of MET (human) (P08581 whole entry, looked up): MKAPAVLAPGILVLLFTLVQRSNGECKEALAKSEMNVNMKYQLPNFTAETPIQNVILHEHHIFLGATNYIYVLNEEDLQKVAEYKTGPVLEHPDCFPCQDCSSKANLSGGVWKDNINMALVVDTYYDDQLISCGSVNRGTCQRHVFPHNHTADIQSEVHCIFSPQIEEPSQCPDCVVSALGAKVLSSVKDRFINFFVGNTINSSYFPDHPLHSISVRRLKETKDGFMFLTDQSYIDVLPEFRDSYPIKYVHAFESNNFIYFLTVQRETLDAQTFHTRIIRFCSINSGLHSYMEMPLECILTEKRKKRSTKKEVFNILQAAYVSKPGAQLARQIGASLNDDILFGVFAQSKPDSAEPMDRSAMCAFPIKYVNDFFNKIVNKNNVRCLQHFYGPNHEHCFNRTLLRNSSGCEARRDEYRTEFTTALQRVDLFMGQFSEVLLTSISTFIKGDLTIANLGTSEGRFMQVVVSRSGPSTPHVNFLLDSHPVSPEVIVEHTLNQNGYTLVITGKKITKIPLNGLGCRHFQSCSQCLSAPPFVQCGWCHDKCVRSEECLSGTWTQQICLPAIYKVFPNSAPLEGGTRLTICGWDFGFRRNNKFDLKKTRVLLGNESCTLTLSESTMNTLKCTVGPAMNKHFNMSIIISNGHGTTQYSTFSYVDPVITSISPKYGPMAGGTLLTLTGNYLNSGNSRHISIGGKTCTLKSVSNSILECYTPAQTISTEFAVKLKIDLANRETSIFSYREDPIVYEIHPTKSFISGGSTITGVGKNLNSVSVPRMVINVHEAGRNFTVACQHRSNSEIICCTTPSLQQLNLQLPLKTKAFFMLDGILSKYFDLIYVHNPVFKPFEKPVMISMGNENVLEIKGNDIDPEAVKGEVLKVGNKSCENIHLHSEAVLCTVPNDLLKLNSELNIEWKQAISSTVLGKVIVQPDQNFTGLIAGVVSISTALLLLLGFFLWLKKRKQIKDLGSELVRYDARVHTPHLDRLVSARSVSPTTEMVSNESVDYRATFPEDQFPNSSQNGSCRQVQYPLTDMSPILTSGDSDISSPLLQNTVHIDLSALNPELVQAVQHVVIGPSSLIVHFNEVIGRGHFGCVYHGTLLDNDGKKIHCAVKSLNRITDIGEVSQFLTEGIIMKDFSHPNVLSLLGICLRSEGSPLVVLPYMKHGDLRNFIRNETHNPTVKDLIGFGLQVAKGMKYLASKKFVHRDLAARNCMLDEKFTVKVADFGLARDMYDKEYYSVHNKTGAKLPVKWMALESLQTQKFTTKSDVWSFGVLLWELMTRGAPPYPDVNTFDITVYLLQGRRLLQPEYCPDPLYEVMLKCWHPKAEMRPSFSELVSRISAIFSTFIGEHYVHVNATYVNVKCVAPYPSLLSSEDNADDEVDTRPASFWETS
Chain of ROCK1 (human) (Q13464 whole entry, looked up): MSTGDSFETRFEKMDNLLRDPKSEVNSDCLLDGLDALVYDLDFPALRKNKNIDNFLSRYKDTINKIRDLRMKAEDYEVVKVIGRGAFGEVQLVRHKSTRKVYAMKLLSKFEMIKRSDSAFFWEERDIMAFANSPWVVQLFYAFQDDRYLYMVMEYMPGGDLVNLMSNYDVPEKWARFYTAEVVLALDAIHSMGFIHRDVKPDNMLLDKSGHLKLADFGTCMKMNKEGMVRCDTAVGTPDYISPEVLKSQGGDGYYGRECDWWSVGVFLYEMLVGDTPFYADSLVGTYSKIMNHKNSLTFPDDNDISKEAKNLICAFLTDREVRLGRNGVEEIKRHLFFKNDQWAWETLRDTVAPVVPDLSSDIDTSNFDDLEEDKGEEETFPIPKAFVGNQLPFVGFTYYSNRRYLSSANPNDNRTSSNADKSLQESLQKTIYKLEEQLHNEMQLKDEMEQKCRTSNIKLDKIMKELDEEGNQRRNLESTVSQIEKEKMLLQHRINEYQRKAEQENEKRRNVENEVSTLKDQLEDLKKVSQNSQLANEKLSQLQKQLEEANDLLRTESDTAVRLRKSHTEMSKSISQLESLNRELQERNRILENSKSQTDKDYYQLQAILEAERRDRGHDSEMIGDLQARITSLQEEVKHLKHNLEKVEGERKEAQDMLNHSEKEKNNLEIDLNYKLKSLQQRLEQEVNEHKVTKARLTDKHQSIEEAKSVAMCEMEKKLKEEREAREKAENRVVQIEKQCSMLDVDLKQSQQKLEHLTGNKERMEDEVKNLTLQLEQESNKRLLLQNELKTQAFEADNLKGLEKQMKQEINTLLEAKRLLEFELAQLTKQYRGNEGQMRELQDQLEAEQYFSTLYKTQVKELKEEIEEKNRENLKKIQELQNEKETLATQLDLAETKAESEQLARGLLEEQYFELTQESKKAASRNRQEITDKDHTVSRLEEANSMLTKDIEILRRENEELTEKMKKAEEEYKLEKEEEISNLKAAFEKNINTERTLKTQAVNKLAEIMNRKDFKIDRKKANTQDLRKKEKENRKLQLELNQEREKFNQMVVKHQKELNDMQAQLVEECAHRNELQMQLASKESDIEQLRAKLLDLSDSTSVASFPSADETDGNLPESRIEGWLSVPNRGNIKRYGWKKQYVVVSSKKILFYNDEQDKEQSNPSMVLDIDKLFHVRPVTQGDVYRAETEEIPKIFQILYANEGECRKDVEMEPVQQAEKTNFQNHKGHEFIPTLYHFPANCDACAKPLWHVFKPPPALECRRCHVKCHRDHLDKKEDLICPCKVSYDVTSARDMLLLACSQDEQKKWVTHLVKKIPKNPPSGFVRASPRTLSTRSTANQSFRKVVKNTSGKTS
Chain of PAK6 (human) (Q9NQU5 whole entry, looked up): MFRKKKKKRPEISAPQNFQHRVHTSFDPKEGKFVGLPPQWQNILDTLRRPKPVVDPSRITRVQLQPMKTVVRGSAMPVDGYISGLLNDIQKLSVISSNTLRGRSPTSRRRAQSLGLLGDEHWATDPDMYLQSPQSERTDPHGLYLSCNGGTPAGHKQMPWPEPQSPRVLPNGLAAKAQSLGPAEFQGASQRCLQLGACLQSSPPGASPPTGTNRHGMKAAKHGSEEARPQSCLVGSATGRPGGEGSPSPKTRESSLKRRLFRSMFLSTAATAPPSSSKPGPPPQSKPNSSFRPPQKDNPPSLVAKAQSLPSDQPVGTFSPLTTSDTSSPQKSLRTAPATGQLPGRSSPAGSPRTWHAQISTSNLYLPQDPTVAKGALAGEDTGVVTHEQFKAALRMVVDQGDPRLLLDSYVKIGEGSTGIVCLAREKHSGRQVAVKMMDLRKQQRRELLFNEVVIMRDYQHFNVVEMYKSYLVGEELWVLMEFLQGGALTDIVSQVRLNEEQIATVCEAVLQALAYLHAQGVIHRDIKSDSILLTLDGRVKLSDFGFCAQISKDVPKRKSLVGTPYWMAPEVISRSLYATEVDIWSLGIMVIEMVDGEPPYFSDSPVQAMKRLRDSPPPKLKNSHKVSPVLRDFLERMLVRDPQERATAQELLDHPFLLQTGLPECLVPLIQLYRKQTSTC

CCCNC(=O)Nc1ccc(Oc2ncnc3cc(OC)c(OC)cc23)cc1Cl
residual activity (AURKA (human)): 89.2% | residual activity (CAMK1D (human)): 96.8% | residual activity (CAMK2B (human)): 94.9% | residual activity (CDK2 CCNE1 (human)): 95.2% | residual activity (CDK6 CCND1 (human)): 92.9% | residual activity (CDK7 CCNH MNAT1 (human)): 119% | residual activity (CDK9 CCNK (human)): 103% | residual activity (CLK2 (human)): 89.5% | residual activity (DAPK1 (human)): 104% | residual activity (EPHA1 (human)): 96.9% | residual activity (EPHB2 (human)): 90.8% | residual activity (EPHB4 (human)): 89.4% | residual activity (FES (human)): 96% | residual activity (GSK3A (human)): 98.8% | residual activity (INSRR (human)): 98.4% | residual activity (MAP4K4 (human)): 86.4% | residual activity (MAPK10 (human)): 100% | residual activity (MAPKAPK5 (human)): 92.2% | residual activity (MET (human)): 73.6% | residual activity (MINK1 (human)): 90.1% | residual activity (MKNK2 (human)): 81.3% | residual activity (MLTK (human)): 103% | residual activity (MST4 (human)): 86.9% | residual activity (MYLK (human)): 97.4% | residual activity (MYLK2 (human)): 99.9% | residual activity (NEK11 (human)): 101% | residual activity (NEK9 (human)): 83.3% | residual activity (PAK6 (human)): 106% | residual activity (PIM1 (human)): 102% | residual activity (PLK2 (human)): 104% | residual activity (PRKACA (human)): 99.7% | residual activity (PRKCD (human)): 90.1% | residual activity (PRKD1 (human)): 92.9% | residual activity (PRKG1 (human)): 76.8% and 95.4% | residual activity (ROCK1 (human)): 99.7% | residual activity (RPS6KB2 (human)): 104% | residual activity (SGK2 (human)): 97.1% | residual activity (STK33 (human)): 88.1% | residual activity (STK39 (human)): 88% | residual activity (SYK (human)): 97.5% | residual activity (ULK2 (human)): 89.2% | residual activity (WNK2 (human)): 100%

O=c1cc(-c2cccc3c2Sc2ccccc2S3)oc(N2CCOCC2)c1
residual activity (AURKA (human)): 91.7% | residual activity (CAMK1D (human)): 106% | residual activity (CAMK2B (human)): 106% | residual activity (CDK2 CCNE1 (human)): 84.6% | residual activity (CDK6 CCND1 (human)): 98.1% | residual activity (CDK7 CCNH MNAT1 (human)): 96.5% | residual activity (CDK9 CCNK (human)): 109% | residual activity (CLK2 (human)): 84.7% | residual activity (DAPK1 (human)): 82.7% | residual activity (EPHA1 (human)): 84.7% | residual activity (EPHB2 (human)): 102% | residual activity (EPHB4 (human)): 94.3% | residual activity (FES (human)): 104% | residual activity (GSK3A (human)): 86.7% | residual activity (INSRR (human)): 98.7% | residual activity (MAP4K4 (human)): 93.2% | residual activity (MAPK10 (human)): 93.6% | residual activity (MAPKAPK5 (human)): 94.5% | residual activity (MET (human)): 107% | residual activity (MINK1 (human)): 100% | residual activity (MKNK2 (human)): 117% | residual activity (MLTK (human)): 100% | residual activity (MST4 (human)): 90.4% | residual activity (MYLK (human)): 102% | residual activity (MYLK2 (human)): 97.4% | residual activity (NEK11 (human)): 88.5% | residual activity (NEK9 (human)): 110% | residual activity (PAK6 (human)): 95.6% | residual activity (PIM1 (human)): 77.6% | residual activity (PLK2 (human)): 84.6% | residual activity (PRKACA (human)): 99.6% | residual activity (PRKCD (human)): 91.9% | residual activity (PRKD1 (human)): 90.3% | residual activity (PRKG1 (human)): 102% and 103% | residual activity (ROCK1 (human)): 101% | residual activity (RPS6KB2 (human)): 102% | residual activity (SGK2 (human)): 115% | residual activity (STK33 (human)): 93.3% | residual activity (STK39 (human)): 84% | residual activity (SYK (human)): 106% | residual activity (ULK2 (human)): 123% | residual activity (WNK2 (human)): 116%

Clc1ccc(Nc2nnc(Cc3ccncc3)c3ccccc23)cc1
residual activity (AURKA (human)): 79% | residual activity (CAMK1D (human)): 108% | residual activity (CAMK2B (human)): 109% | residual activity (CDK2 CCNE1 (human)): 94.5% | residual activity (CDK6 CCND1 (human)): 93% | residual activity (CDK7 CCNH MNAT1 (human)): 107% | residual activity (CDK9 CCNK (human)): 104% | residual activity (CLK2 (human)): 87.6% | residual activity (DAPK1 (human)): 105% | residual activity (EPHA1 (human)): 96% | residual activity (EPHB2 (human)): 107% | residual activity (EPHB4 (human)): 85.1% | residual activity (FES (human)): 94.7% | residual activity (GSK3A (human)): 103% | residual activity (INSRR (human)): 93.5% | residual activity (MAP4K4 (human)): 107% | residual activity (MAPK10 (human)): 116% | residual activity (MAPKAPK5 (human)): 97.8% | residual activity (MET (human)): 94% | residual activity (MINK1 (human)): 104% | residual activity (MKNK2 (human)): 101% | residual activity (MLTK (human)): 90.3% | residual activity (MST4 (human)): 118% | residual activity (MYLK (human)): 97.5% | residual activity (MYLK2 (human)): 103% | residual activity (NEK11 (human)): 87% | residual activity (NEK9 (human)): 98.4% | residual activity (PAK6 (human)): 107% | residual activity (PIM1 (human)): 102% | residual activity (PLK2 (human)): 101% | residual activity (PRKACA (human)): 98.1% | residual activity (PRKCD (human)): 97.4% | residual activity (PRKD1 (human)): 101% | residual activity (PRKG1 (human)): 94.1% and 97.2% | residual activity (ROCK1 (human)): 110% | residual activity (RPS6KB2 (human)): 101% | residual activity (SGK2 (human)): 104% | residual activity (STK33 (human)): 94.2% | residual activity (STK39 (human)): 92.6% | residual activity (SYK (human)): 114% | residual activity (ULK2 (human)): 99.9% | residual activity (WNK2 (human)): 96.3%

Cc1ccc(NC(=O)c2ccc(CN3CCN(C)CC3)cc2)cc1Nc1nc(-c2cccnc2)cs1
residual activity (AURKA (human)): 105% | residual activity (CAMK1D (human)): 110% | residual activity (CAMK2B (human)): 100% | residual activity (CDK2 CCNE1 (human)): 95% | residual activity (CDK6 CCND1 (human)): 98% | residual activity (CDK7 CCNH MNAT1 (human)): 110% | residual activity (CDK9 CCNK (human)): 109% | residual activity (CLK2 (human)): 86% | residual activity (DAPK1 (human)): 97.5% | residual activity (EPHA1 (human)): 96.5% | residual activity (EPHB2 (human)): 95.3% | residual activity (EPHB4 (human)): 97.3% | residual activity (FES (human)): 105% | residual activity (GSK3A (human)): 101% | residual activity (INSRR (human)): 102% | residual activity (MAP4K4 (human)): 72.2% | residual activity (MAPK10 (human)): 94.2% | residual activity (MAPKAPK5 (human)): 103% | residual activity (MET (human)): 104% | residual activity (MINK1 (human)): 86.7% | residual activity (MKNK2 (human)): 103% | residual activity (MLTK (human)): 86.8% | residual activity (MST4 (human)): 97% | residual activity (MYLK (human)): 96.2% | residual activity (MYLK2 (human)): 98.7% | residual activity (NEK11 (human)): 95.1% | residual activity (NEK9 (human)): 98.6% | residual activity (PAK6 (human)): 101% | residual activity (PIM1 (human)): 86.4% | residual activity (PLK2 (human)): 97.9% | residual activity (PRKACA (human)): 104% | residual activity (PRKCD (human)): 97.9% | residual activity (PRKD1 (human)): 98.2% | residual activity (PRKG1 (human)): 77.6% and 93.8% | residual activity (ROCK1 (human)): 102% | residual activity (RPS6KB2 (human)): 101% | residual activity (SGK2 (human)): 106% | residual activity (STK33 (human)): 91.1% | residual activity (STK39 (human)): 94% | residual activity (SYK (human)): 101% | residual activity (ULK2 (human)): 103% | residual activity (WNK2 (human)): 99.2%
